Measurements as given in patent US10167257B2, “Indole derivatives for use in medicine” (IOmet Pharma Ltd., priority 2014, dated 2019).

Legend:
IDO (SKOV-3 cells) = target: T1, IDO (SKOV-3 cells) (Homo sapiens, UniProt P14902); experiment: IDO cell-based assay (SKOV-3, IFNγ-induced), kynurenine production; settings: SKOV-3 ovary adenocarcinoma cells, IFNγ 500 ng/ml, 500 μM L-Trp, 48 h, kynurenine by absorbance at 490 nm
T1 construct: This assay utilised cancer cells which expressed either TDO or IDO; host or cells: SKOV-3 ovary adenocarcinoma cells, IFNγ-induced
In short: (§1)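 SKOV-3 cells (IDO, induced with 500 ng/ml IFNγ) or A172 glioblastoma cells (TDO) were incubated with compound and 500 μM L-Trp for 48 h at 37 °C in phenol-red-free RPMI with dialysed serum. Supernatant kynurenine was measured with 1% Ehrlich's reagent as absorbance at 490 nm.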

TDO (A172 cells) = target: T2, TDO (A172 cells) (Homo sapiens, UniProt P48775); experiment: TDO cell-based assay (A172), kynurenine production; settings: A172 human glioblastoma cells, 500 μM L-Trp, 48 h, kynurenine by absorbance at 490 nm
T2 construct: This assay utilised cancer cells which expressed either TDO or IDO; host or cells: A172 human glioblastoma cells
In short: as §1

T1 sequence (P14902 whole entry): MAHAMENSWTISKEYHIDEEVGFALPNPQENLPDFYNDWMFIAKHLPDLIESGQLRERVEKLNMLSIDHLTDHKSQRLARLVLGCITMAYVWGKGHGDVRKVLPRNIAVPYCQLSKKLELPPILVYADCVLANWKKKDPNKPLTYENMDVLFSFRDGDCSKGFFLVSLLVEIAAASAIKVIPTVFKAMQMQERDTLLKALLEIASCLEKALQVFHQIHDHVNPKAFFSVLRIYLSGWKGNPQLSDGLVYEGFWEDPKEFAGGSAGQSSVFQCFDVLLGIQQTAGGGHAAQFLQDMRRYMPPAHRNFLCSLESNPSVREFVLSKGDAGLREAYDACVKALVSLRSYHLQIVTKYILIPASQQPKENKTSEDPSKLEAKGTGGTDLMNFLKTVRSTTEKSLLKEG
T2 sequence (P48775 whole entry): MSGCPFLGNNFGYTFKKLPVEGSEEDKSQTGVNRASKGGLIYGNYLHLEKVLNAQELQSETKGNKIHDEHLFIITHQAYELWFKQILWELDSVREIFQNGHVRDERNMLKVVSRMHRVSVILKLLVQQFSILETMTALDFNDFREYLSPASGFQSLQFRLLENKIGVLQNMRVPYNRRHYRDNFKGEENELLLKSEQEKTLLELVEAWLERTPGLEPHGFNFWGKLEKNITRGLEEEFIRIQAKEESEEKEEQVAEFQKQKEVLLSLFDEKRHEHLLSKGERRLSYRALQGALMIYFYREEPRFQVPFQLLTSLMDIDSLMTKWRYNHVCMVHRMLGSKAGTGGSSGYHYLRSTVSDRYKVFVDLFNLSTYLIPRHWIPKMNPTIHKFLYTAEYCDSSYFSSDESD

SMILES	IDO cellular assay (SKOV3) pIC50 (IDO (SKOV-3 cells))	TDO cellular assay (A172) pIC50 (TDO (A172 cells))	IC50 (IDO (SKOV-3 cells); read-out: IDO cellular assay (SKOV3) pIC50 (converted)) [µM]	IC50 (TDO (A172 cells); read-out: TDO cellular assay (A172) pIC50 (converted)) [µM]
CCC(NC(=O)c1cc2cc(Cl)ccc2[nH]1)c1ccccc1 (stereo not shown) [Compound 114]	+++ (+++ = pIC50 ≥5.50)	− (− = pIC50 <4.50)		
CC(NC(=O)c1cc2cc(Cl)ccc2[nH]1)c1cnn(-c2ccccc2F)c1 (stereo not shown) [Compound 115]	+++ (+++ = pIC50 ≥5.50)	+ (+ = pIC50 4.50-<5.00)		
O=C(NC1Cc2ccccc2C1)c1cc2cc(Cl)ccc2[nH]1 [Compound 116]	− (− = pIC50 <4.50)	++ (++ = pIC50 5.00-<5.50)		
CCN(Cc1noc(CC(C)C)n1)C(=O)c1cc2cc(Cl)ccc2[nH]1 [Compound 117]	++ (++ = pIC50 5.00-<5.50)	+ (+ = pIC50 4.50-<5.00)		
Cc1ccccc1C1CCN(CCNC(=O)c2cc3cc(Cl)ccc3[nH]2)C1 (stereo not shown) [Compound 118]	++ (++ = pIC50 5.00-<5.50)	+ (+ = pIC50 4.50-<5.00)		
O=C(NC1CCCCC1O)c1cc2cc(Cl)ccc2[nH]1 (stereo not shown) [Compound 119]	+ (+ = pIC50 4.50-<5.00)	− (− = pIC50 <4.50)		
Cc1nccc2c(NC(=O)c3cc4cc(F)ccc4[nH]3)cccc12 [Compound 120]	+++ (+++ = pIC50 ≥5.50)	− (− = pIC50 <4.50)		
CC(NC(=O)c1cc2cc(Cl)ccc2[nH]1)c1nc(-c2ccccc2)no1 (stereo not shown) [Compound 121]	+++ (+++ = pIC50 ≥5.50)	− (− = pIC50 <4.50)		
CC(CCNS(C)(=O)=O)NC(=O)c1cc2cc(Cl)ccc2[nH]1 (stereo not shown) [Compound 122]	++ (++ = pIC50 5.00-<5.50)	− (− = pIC50 <4.50)		
C[C@H](NS(=O)(=O)c1cc2cc(F)ccc2[nH]1)c1ccccc1 [Compound 123]	++ (++ = pIC50 5.00-<5.50)	+ (+ = pIC50 4.50-<5.00)		
CC(NC(=O)c1cc2cc(Cl)ccc2[nH]1)c1cnn(-c2ccccc2)c1 (stereo not shown) [Compound 124]	+++ (+++ = pIC50 ≥5.50)	− (− = pIC50 <4.50)		
COc1cccc(-n2cc(C(C)NC(=O)c3cc4cc(Cl)ccc4[nH]3)cn2)c1 (stereo not shown) [Compound 125]	+++ (+++ = pIC50 ≥5.50)	+ (+ = pIC50 4.50-<5.00)		
CC(C)c1noc(C(C)NC(=O)c2cc3cc(Cl)ccc3[nH]2)n1 (stereo not shown) [Compound 126]	+++ (+++ = pIC50 ≥5.50)	− (− = pIC50 <4.50)		
C[C@@H](NS(=O)(=O)c1cc2cc(F)ccc2[nH]1)c1ccccc1 [Compound 127]	+ (+ = pIC50 4.50-<5.00)	− (− = pIC50 <4.50)		
O=C(NC1(c2ccccc2)CC1)c1cc2cc(Cl)ccc2[nH]1 [Compound 128]	+++ (+++ = pIC50 ≥5.50)	+ (+ = pIC50 4.50-<5.00)		
O=C(NCc1nc(-c2ccccc2)no1)c1cc2cc(Cl)ccc2[nH]1 [Compound 129]	++ (++ = pIC50 5.00-<5.50)	− (− = pIC50 <4.50)		
COCCc1noc(C(C)NC(=O)c2cc3cc(Cl)ccc3[nH]2)n1 (stereo not shown) [Compound 130]	++ (++ = pIC50 5.00-<5.50)	− (− = pIC50 <4.50)		
COc1ccc(-c2noc(C(C)NC(=O)c3cc4cc(Cl)ccc4[nH]3)n2)cc1OC (stereo not shown) [Compound 131]	+++ (+++ = pIC50 ≥5.50)	− (− = pIC50 <4.50)		
O=C(NC1(c2ccccc2)CCC1)c1cc2cc(Cl)ccc2[nH]1 [Compound 132]	+++ (+++ = pIC50 ≥5.50)	+ (+ = pIC50 4.50-<5.00)		
CC(NC(=O)c1cc2cc(Cl)ccc2[nH]1)c1cnn(C)c1 (stereo not shown) [Compound 133]	+++ (+++ = pIC50 ≥5.50)	− (− = pIC50 <4.50)		
CC(NC(=O)c1cc2cc(Cl)ccc2[nH]1)c1noc(-c2ccccc2)n1 (stereo not shown) [Compound 134]	+++ (+++ = pIC50 ≥5.50)	− (− = pIC50 <4.50)		
CC(NC(=O)c1cc2cc(Cl)ccc2[nH]1)c1cnn(C(C)C)c1 (stereo not shown) [Compound 135]	+++ (+++ = pIC50 ≥5.50)	− (− = pIC50 <4.50)		
N#Cc1ccc2[nH]c(C(=O)NC3(c4ccccc4)CC3)cc2c1 [Compound 136]	+++ (+++ = pIC50 ≥5.50)	− (− = pIC50 <4.50)		
N#Cc1ccc2[nH]c(C(=O)NC3(c4ccc(F)cc4)CC3)cc2c1 [Compound 137]	+++ (+++ = pIC50 ≥5.50)	− (− = pIC50 <4.50)		

SMILES	IDO cellular assay (SKOV3) pIC50 (IDO (SKOV-3 cells))	TDO cellular assay (A172) pIC50 (TDO (A172 cells))	IC50 (IDO (SKOV-3 cells); read-out: IDO cellular assay (SKOV3) pIC50 (converted)) [µM]	IC50 (TDO (A172 cells); read-out: TDO cellular assay (A172) pIC50 (converted)) [µM]
O=C(NC1(c2ccc(F)cc2)CC1)c1cc2cc(Cl)ccc2[nH]1 [Compound 138]	+++ (+++ = pIC50 ≥5.50)	− (− = pIC50 <4.50)		
CC1(NC(=O)c2cc3cc(Cl)ccc3[nH]2)CC1 [Compound 139]	+ (+ = pIC50 4.50-<5.00)	− (− = pIC50 <4.50)		
O=C(NC1(c2nc(-c3ccccc3)no2)CC1)c1cc2cc(Cl)ccc2[nH]1 [Compound 140]	+++ (+++ = pIC50 ≥5.50)	− (− = pIC50 <4.50)		
Cn1cc(C2(NC(=O)c3cc4cc(Cl)ccc4[nH]3)CC2)cn1 [Compound 141]			≤ 3.16	> 31.6
O=C(NC1(c2ccccc2)COC1)c1cc2cc(Cl)ccc2[nH]1 [Compound 142]	+++ (+++ = pIC50 ≥5.50)	+ (+ = pIC50 4.50-<5.00)		
O=C(NC1(c2ccn(-c3ccccc3)n2)CC1)c1cc2cc(Cl)ccc2[nH]1 [Compound 143]	+++ (+++ = pIC50 ≥5.50)	+ (+ = pIC50 4.50-<5.00)		
O=C(NC1(C2CCOCC2)CC1)c1cc2cc(Cl)ccc2[nH]1 [Compound 144]	+++ (+++ = pIC50 ≥5.50)	+ (+ = pIC50 4.50-<5.00)		
Cn1cc(C2(NC(=O)c3cc4cc(C#N)ccc4[nH]3)CC2)cn1 [Compound 145]	+++ (+++ = pIC50 ≥5.50)	− (− = pIC50 <4.50)		
COc1ccc(-n2cc(C(C)NC(=O)c3cc4cc(Cl)ccc4[nH]3)cn2)cc1 (stereo not shown) [Compound 146]	+++ (+++ = pIC50 ≥5.50)	− (− = pIC50 <4.50)		
CC(=O)N1CC(C(C)NC(=O)c2cc3cc(Cl)ccc3[nH]2)C1 (stereo not shown) [Compound 147]	+++ (+++ = pIC50 ≥5.50)	− (− = pIC50 <4.50)		
O=C(NC1(c2ccc(Cl)cc2)CC1)c1cc2cc(Cl)ccc2[nH]1 [Compound 148]	+++ (+++ = pIC50 ≥5.50)	+ (+ = pIC50 4.50-<5.00)		
COc1ccc(C2(NC(=O)c3cc4cc(Cl)ccc4[nH]3)CC2)cc1 [Compound 150]	+++ (+++ = pIC50 ≥5.50)	++ (++ = pIC50 5.00-<5.50)		
O=C(NC1(c2cnn(-c3ccccc3)c2)CC1)c1cc2cc(Cl)ccc2[nH]1 [Compound 151]	+++ (+++ = pIC50 ≥5.50)	− (− = pIC50 <4.50)		
CC(NC(=O)c1cc2cc(Cl)ccc2[nH]1)C1CN(S(C)(=O)=O)C1 (stereo not shown) [Compound 152]	++ (++ = pIC50 5.00-<5.50)	− (− = pIC50 <4.50)		
O=C(NC1(c2cccnc2)CC1)c1cc2cc(Cl)ccc2[nH]1 [Compound 153]	+++ (+++ = pIC50 ≥5.50)	− (− = pIC50 <4.50)		
CC(CN(C)S(C)(=O)=O)NC(=O)c1cc2cc(Cl)ccc2[nH]1 (stereo not shown) [Compound 154]	+ (+ = pIC50 4.50-<5.00)	− (− = pIC50 <4.50)		
O=C(NC1(c2ccccn2)CC1)c1cc2cc(Cl)ccc2[nH]1 [Compound 155]	+++ (+++ = pIC50 ≥5.50)	− (− = pIC50 <4.50)		
O=C(NC1(c2ccccc2)CC1)c1cc2cc(C(F)(F)F)ccc2[nH]1 [Compound 156]	+++ (+++ = pIC50 ≥5.50)	− (− = pIC50 <4.50)		
CC(NC(=O)c1cc2cc(C(F)(F)F)ccc2[nH]1)c1cnn(C)c1 (stereo not shown) [Compound 157]	++ (++ = pIC50 5.00-<5.50)	− (− = pIC50 <4.50)		
C[C@@H](NC(=O)c1cc2cc(C(F)(F)F)ccc2[nH]1)c1ccccc1 [Compound 158]	+++ (+++ = pIC50 ≥5.50)	− (− = pIC50 <4.50)		
COc1ccc2cc(C(=O)N[C@H](C)c3ccccc3)[nH]c2c1 [Compound 159]	++ (++ = pIC50 5.00-<5.50)	− (− = pIC50 <4.50)		
CC(=O)N1CCC(C2(NC(=O)c3cc4cc(Cl)ccc4[nH]3)CC2)CC1 [Compound 160]	+++ (+++ = pIC50 ≥5.50)	− (− = pIC50 <4.50)		
CS(=O)(=O)N1CCC(C2(NC(=O)c3cc4cc(Cl)ccc4[nH]3)CC2)CC1 [Compound 161]	+++ (+++ = pIC50 ≥5.50)	− (− = pIC50 <4.50)		
